Laboratory results taken from PubChem BioAssay (NCI).
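Exposure lasted 48 hours, with cells grown in 96-well plates and compounds tested at five concentrations. Here, GI50 denotes the concentration required for 50% inhibition of growth. Definition used: TGI = concentration required for complete inhibition of growth.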

Columns and labels:
Experiment in all cases: NCI anticancer screen, dose series, 48 h
786-0 renal = test system: 786-0 renal
A498 renal = test system: A498 renal
A549 NSCLC = test system: A549 NSCLC
ACHN renal = test system: ACHN renal
CAKI-1 renal = test system: CAKI-1 renal
CCRF-CEM leukemia = test system: CCRF-CEM leukemia
COLO 205 colon = test system: COLO 205 colon
DLD-1 colon = test system: DLD-1 colon
DMS 114 small cell lung = test system: DMS 114 small cell lung
DMS 273 small cell lung = test system: DMS 273 small cell lung
EKVX NSCLC = test system: EKVX NSCLC
HCC-2998 colon = test system: HCC-2998 colon
HCT-116 colon = test system: HCT-116 colon
HCT-15 colon = test system: HCT-15 colon
HL-60(TB) leukemia = test system: HL-60(TB) leukemia
HOP-18 NSCLC = test system: HOP-18 NSCLC
HOP-62 NSCLC = test system: HOP-62 NSCLC
HOP-92 NSCLC = test system: HOP-92 NSCLC
HT29 colon = test system: HT29 colon
IGROV1 ovarian = test system: IGROV1 ovarian
K-562 leukemia = test system: K-562 leukemia
KM12 colon = test system: KM12 colon
KM20L2 colon = test system: KM20L2 colon
LOX IMVI melanoma = test system: LOX IMVI melanoma
LXFL 529 NSCLC = test system: LXFL 529 NSCLC
M14 melanoma = test system: M14 melanoma
M19-MEL melanoma = test system: M19-MEL melanoma
MALME-3M melanoma = test system: MALME-3M melanoma
MOLT-4 leukemia = test system: MOLT-4 leukemia
NCI-H226 lung = test system: NCI-H226 lung
NCI-H23 lung = test system: NCI-H23 lung
NCI-H460 lung = test system: NCI-H460 lung
NCI-H522 lung = test system: NCI-H522 lung
OVCAR-3 ovarian = test system: OVCAR-3 ovarian
OVCAR-4 ovarian = test system: OVCAR-4 ovarian
OVCAR-5 ovarian = test system: OVCAR-5 ovarian
OVCAR-8 ovarian = test system: OVCAR-8 ovarian
RPMI-8226 leukemia = test system: RPMI-8226 leukemia
RXF 393 renal = test system: RXF 393 renal
RXF-631 renal = test system: RXF-631 renal
SF-268 CNS = test system: SF-268 CNS
SF-295 CNS = test system: SF-295 CNS
SF-539 CNS = test system: SF-539 CNS
SK-MEL-2 melanoma = test system: SK-MEL-2 melanoma
SK-MEL-28 melanoma = test system: SK-MEL-28 melanoma
SK-MEL-5 melanoma = test system: SK-MEL-5 melanoma
SK-OV-3 ovarian = test system: SK-OV-3 ovarian
SN12C renal = test system: SN12C renal
SNB-19 CNS = test system: SNB-19 CNS
SNB-75 CNS = test system: SNB-75 CNS
SNB-78 CNS = test system: SNB-78 CNS
SW-620 colon = test system: SW-620 colon
TK-10 renal = test system: TK-10 renal
U251 CNS = test system: U251 CNS
UACC-257 melanoma = test system: UACC-257 melanoma
UACC-62 melanoma = test system: UACC-62 melanoma
UO-31 renal = test system: UO-31 renal
XF 498 CNS = test system: XF 498 CNS

## C[C@]12Cc3cn[nH]c3C(=O)C1CC[C@@H]1C2CC[C@@]2(C)C1CC[C@]2(C)O (some centres undefined)
786-0 renal
  TGI: > 100 µM
A498 renal
  TGI: > 100 µM
A549 NSCLC
  TGI: > 100 µM
ACHN renal
  TGI: > 100 µM
CAKI-1 renal
  TGI: > 100 µM
CCRF-CEM leukemia
  TGI: > 100 µM
COLO 205 colon
  TGI: > 100 µM
DLD-1 colon
  TGI: > 100 µM
DMS 114 small cell lung
  TGI: > 100 µM
DMS 273 small cell lung
  TGI: > 100 µM
EKVX NSCLC
  TGI: > 100 µM
HCC-2998 colon
  TGI: > 100 µM
HCT-116 colon
  TGI: > 100 µM
HCT-15 colon
  TGI: > 100 µM
HL-60(TB) leukemia
  TGI: > 100 µM
HOP-18 NSCLC
  TGI: > 100 µM
HOP-62 NSCLC
  TGI: > 100 µM
HOP-92 NSCLC
  TGI: > 100 µM
HT29 colon
  TGI: > 100 µM
IGROV1 ovarian
  TGI: > 100 µM
K-562 leukemia
  TGI: > 100 µM
KM12 colon
  TGI: > 100 µM
KM20L2 colon
  TGI: > 100 µM
LOX IMVI melanoma
  TGI: > 100 µM
LXFL 529 NSCLC
  TGI: > 100 µM
M14 melanoma
  TGI: > 100 µM
M19-MEL melanoma
  TGI: > 100 µM
MALME-3M melanoma
  TGI: > 100 µM
MOLT-4 leukemia
  TGI: > 100 µM
NCI-H226 lung
  TGI: > 100 µM
NCI-H23 lung
  TGI: > 100 µM
NCI-H460 lung
  TGI: > 100 µM
NCI-H522 lung
  TGI: > 100 µM
OVCAR-3 ovarian
  TGI: > 100 µM
OVCAR-4 ovarian
  TGI: > 100 µM
OVCAR-5 ovarian
  TGI: > 100 µM
OVCAR-8 ovarian
  TGI: > 100 µM
RPMI-8226 leukemia
  TGI: > 100 µM
RXF 393 renal
  TGI: > 100 µM
RXF-631 renal
  TGI: > 100 µM
SF-268 CNS
  TGI: > 100 µM
SF-295 CNS
  TGI: > 100 µM
SF-539 CNS
  TGI: > 100 µM
SK-MEL-2 melanoma
  TGI: > 100 µM
SK-MEL-28 melanoma
  TGI: > 100 µM
SK-MEL-5 melanoma
  TGI: > 100 µM
SK-OV-3 ovarian
  TGI: > 100 µM
SN12C renal
  TGI: > 100 µM
SNB-19 CNS
  TGI: > 100 µM
SNB-75 CNS
  TGI: > 100 µM
SNB-78 CNS
  TGI: > 100 µM
SW-620 colon
  TGI: > 100 µM
TK-10 renal
  TGI: > 100 µM
U251 CNS
  TGI: > 100 µM
UACC-257 melanoma
  TGI: > 100 µM
UACC-62 melanoma
  TGI: > 100 µM
UO-31 renal
  TGI: > 100 µM
XF 498 CNS
  TGI: > 100 µM

## O=C1OC(c2cccc(C(F)(F)F)c2)c2ccc3ccccc3c21 (centres undefined)
786-0 renal
  GI50: > 100 µM
  TGI: > 100 µM
A498 renal
  GI50: > 100 µM
  TGI: > 100 µM
A549 NSCLC
  TGI: > 100 µM
CAKI-1 renal
  GI50: > 100 µM
  TGI: > 100 µM
CCRF-CEM leukemia
  GI50: 5.19 µM
  TGI: > 100 µM
COLO 205 colon
  GI50: > 100 µM
  TGI: > 100 µM
DLD-1 colon
  TGI: > 100 µM
DMS 114 small cell lung
  TGI: > 100 µM
EKVX NSCLC
  GI50: > 100 µM
  TGI: > 100 µM
HCC-2998 colon
  GI50: > 100 µM
  TGI: > 100 µM
HCT-15 colon
  GI50: 6.21 µM
  TGI: > 100 µM
HL-60(TB) leukemia
  TGI: > 100 µM
HOP-18 NSCLC
  GI50: > 100 µM
  TGI: > 100 µM
HOP-62 NSCLC
  GI50: > 100 µM
  TGI: > 100 µM
HOP-92 NSCLC
  TGI: > 100 µM
IGROV1 ovarian
  GI50: > 100 µM
  TGI: > 100 µM
K-562 leukemia
  GI50: 25 µM
  TGI: > 100 µM
KM12 colon
  GI50: > 100 µM
  TGI: > 100 µM
KM20L2 colon
  GI50: > 100 µM
  TGI: > 100 µM
LXFL 529 NSCLC
  TGI: > 100 µM
M14 melanoma
  GI50: > 100 µM
  TGI: > 100 µM
M19-MEL melanoma
  GI50: > 100 µM
  TGI: > 100 µM
MOLT-4 leukemia
  GI50: 4.99 µM
  TGI: > 100 µM
NCI-H226 lung
  GI50: > 100 µM
  TGI: > 100 µM
NCI-H23 lung
  TGI: > 100 µM
OVCAR-3 ovarian
  GI50: > 100 µM
  TGI: > 100 µM
OVCAR-4 ovarian
  GI50: > 100 µM
  TGI: > 100 µM
OVCAR-5 ovarian
  GI50: > 100 µM
  TGI: > 100 µM
OVCAR-8 ovarian
  GI50: > 100 µM
  TGI: > 100 µM
RXF 393 renal
  TGI: > 100 µM
RXF-631 renal
  GI50: > 100 µM
  TGI: > 100 µM
SF-295 CNS
  TGI: > 100 µM
SF-539 CNS
  TGI: > 100 µM
SK-MEL-2 melanoma
  GI50: > 100 µM
  TGI: > 100 µM
SK-MEL-28 melanoma
  GI50: > 100 µM
  TGI: > 100 µM
SK-OV-3 ovarian
  GI50: > 100 µM
  TGI: > 100 µM
SN12C renal
  GI50: > 100 µM
  TGI: > 100 µM
SNB-19 CNS
  GI50: > 100 µM
  TGI: > 100 µM
SNB-75 CNS
  TGI: > 100 µM
SNB-78 CNS
  TGI: > 100 µM
SW-620 colon
  GI50: > 100 µM
  TGI: > 100 µM
TK-10 renal
  GI50: > 100 µM
  TGI: > 100 µM
UACC-257 melanoma
  GI50: 8.64 µM
  TGI: > 100 µM
UO-31 renal
  TGI: > 100 µM
XF 498 CNS
  TGI: > 100 µM
